Measured values as given in patent US10844077B2, “Thiazolyl-containing compounds for treating proliferative diseases” (Dana-Farber Cancer Institute, Inc., priority 2014, dated 2020).

Key:
Type in all cases: binding
broad panel of kinases [1] = biological target: broad panel of kinases (Homo sapiens, UniProt P00533, G719C); conditions: EGFR(G719C); 1 μM
broad panel of kinases [2] = biological target: broad panel of kinases (Homo sapiens, UniProt P29323); conditions: EPHB2; 1 μM
broad panel of kinases [3] = biological target: broad panel of kinases (Homo sapiens, UniProt P43405); conditions: SYK; 1 μM
broad panel of kinases [4] = biological target: broad panel of kinases (Homo sapiens, UniProt P42336, Q546K); conditions: PIK3CA(Q546K); 1 μM
broad panel of kinases [5] = biological target: broad panel of kinases (Homo sapiens, UniProt Q96L34); conditions: MARK4; 1 μM
broad panel of kinases [6] = biological target: broad panel of kinases (Homo sapiens, UniProt P57058); conditions: HUNK; 1 μM
broad panel of kinases [7] = biological target: broad panel of kinases (Homo sapiens, UniProt Q13554); conditions: CAMK2B; 1 μM
broad panel of kinases [8] = biological target: broad panel of kinases (Homo sapiens, UniProt P36888, K663Q); conditions: FLT3(K663Q); 1 μM
broad panel of kinases [9] = biological target: broad panel of kinases (Homo sapiens, UniProt Q9H4A3); conditions: WNK1; 1 μM
broad panel of kinases [10] = biological target: broad panel of kinases (Homo sapiens, UniProt P04049); conditions: RAF1; 1 μM
broad panel of kinases [11] = biological target: broad panel of kinases (Homo sapiens, UniProt O14976); conditions: GAK; 1 μM
broad panel of kinases [12] = biological target: broad panel of kinases (Homo sapiens, UniProt Q14012); conditions: CAMK1; 1 μM
broad panel of kinases [13] = biological target: broad panel of kinases (Homo sapiens, UniProt P27361); conditions: ERK1; 1 μM
broad panel of kinases [14] = biological target: broad panel of kinases (Homo sapiens, UniProt Q9NYL2); conditions: ZAK; 1 μM
broad panel of kinases [15] = biological target: broad panel of kinases (Homo sapiens, UniProt P11362); conditions: FGFR1; 1 μM
broad panel of kinases [16] = biological target: broad panel of kinases (Homo sapiens, UniProt Q9P0L2); conditions: MARK1; 1 μM
broad panel of kinases [17] = biological target: broad panel of kinases (Homo sapiens, UniProt P42336, E542K); conditions: PIK3CA(E542K); 1 μM
broad panel of kinases [18] = biological target: broad panel of kinases (Homo sapiens, UniProt P49137)
broad panel of kinases [19] = biological target: broad panel of kinases (Homo sapiens, UniProt P32298); conditions: GRK4; 1 μM
broad panel of kinases [20] = biological target: broad panel of kinases (Homo sapiens, UniProt Q9H4B4); conditions: PLK3; 1 μM
broad panel of kinases [21] = biological target: broad panel of kinases (Homo sapiens, UniProt Q15208); conditions: NDR1; 1 μM
broad panel of kinases [22] = biological target: broad panel of kinases (Homo sapiens, UniProt P45983); conditions: JNK1; 1 μM
broad panel of kinases [23] = biological target: broad panel of kinases (Homo sapiens, UniProt Q9HAZ1); conditions: CLK4; 1 μM
broad panel of kinases [24] = biological target: broad panel of kinases (Homo sapiens, UniProt Q8WTQ7); conditions: GRK7; 1 μM
broad panel of kinases [25] = biological target: broad panel of kinases (Homo sapiens, UniProt P36888, N841I); conditions: FLT3(N841I); 1 μM
broad panel of kinases [26] = biological target: broad panel of kinases (Homo sapiens, UniProt P10721, L576P); conditions: KIT(L576P); 1 μM
broad panel of kinases [27] = biological target: broad panel of kinases (Homo sapiens, UniProt P16234); conditions: PDGFRA; 1 μM
broad panel of kinases [28] = biological target: broad panel of kinases (Homo sapiens, UniProt P30530); conditions: AXL; 1 μM
broad panel of kinases [29] = biological target: broad panel of kinases (Homo sapiens, UniProt Q92630); conditions: DYRK2; 1 μM
broad panel of kinases [30] = biological target: broad panel of kinases (Homo sapiens, UniProt P04626); conditions: ERBB2; 1 μM
broad panel of kinases [31] = biological target: broad panel of kinases (Homo sapiens, UniProt Q9Y2H9); conditions: MAST1; 1 μM
broad panel of kinases [32] = biological target: broad panel of kinases (Homo sapiens, UniProt P20794); conditions: MAK; 1 μM
broad panel of kinases [33] = biological target: broad panel of kinases (Homo sapiens, UniProt Q9NRP7); conditions: STK36; 1 μM
broad panel of kinases [34] = biological target: broad panel of kinases (Homo sapiens, UniProt P29317); conditions: EPHA2; 1 μM
broad panel of kinases [35] = biological target: broad panel of kinases (Homo sapiens, UniProt P48730); conditions: CSNK1D; 1 μM
broad panel of kinases [36] = biological target: broad panel of kinases (Homo sapiens, UniProt Q12866); conditions: MERTK; 1 μM
broad panel of kinases [37] = biological target: broad panel of kinases (Homo sapiens, UniProt Q8IW41)

Sequence of broad panel of kinases (Homo sapiens, UniProt P30530) (P30530 26-894 limits assumed): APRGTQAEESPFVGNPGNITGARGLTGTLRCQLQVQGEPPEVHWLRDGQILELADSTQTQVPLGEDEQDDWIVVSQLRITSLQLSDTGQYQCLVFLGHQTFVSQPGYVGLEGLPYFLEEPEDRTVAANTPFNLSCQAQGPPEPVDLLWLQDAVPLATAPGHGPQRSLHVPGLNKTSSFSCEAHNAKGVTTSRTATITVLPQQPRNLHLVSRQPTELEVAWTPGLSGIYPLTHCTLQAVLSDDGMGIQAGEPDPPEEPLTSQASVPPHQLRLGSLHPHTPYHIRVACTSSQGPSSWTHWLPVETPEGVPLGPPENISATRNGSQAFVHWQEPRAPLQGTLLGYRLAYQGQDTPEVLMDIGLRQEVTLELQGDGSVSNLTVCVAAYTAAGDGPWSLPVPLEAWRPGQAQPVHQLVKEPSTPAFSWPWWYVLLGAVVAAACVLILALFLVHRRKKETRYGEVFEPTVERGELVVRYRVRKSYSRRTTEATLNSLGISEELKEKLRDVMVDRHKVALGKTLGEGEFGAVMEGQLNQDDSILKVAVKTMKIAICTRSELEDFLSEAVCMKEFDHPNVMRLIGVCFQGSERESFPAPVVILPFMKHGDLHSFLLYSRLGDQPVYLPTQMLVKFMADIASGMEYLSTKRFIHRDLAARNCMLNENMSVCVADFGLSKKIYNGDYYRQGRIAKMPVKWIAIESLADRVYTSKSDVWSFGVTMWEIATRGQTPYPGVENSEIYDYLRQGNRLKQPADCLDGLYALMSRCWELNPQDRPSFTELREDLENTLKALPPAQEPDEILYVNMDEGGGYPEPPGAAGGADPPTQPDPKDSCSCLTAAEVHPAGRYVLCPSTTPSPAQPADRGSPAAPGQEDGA
Sequence of broad panel of kinases (Homo sapiens, UniProt P00533, G719C) (P00533 25-1210 G719C limits assumed): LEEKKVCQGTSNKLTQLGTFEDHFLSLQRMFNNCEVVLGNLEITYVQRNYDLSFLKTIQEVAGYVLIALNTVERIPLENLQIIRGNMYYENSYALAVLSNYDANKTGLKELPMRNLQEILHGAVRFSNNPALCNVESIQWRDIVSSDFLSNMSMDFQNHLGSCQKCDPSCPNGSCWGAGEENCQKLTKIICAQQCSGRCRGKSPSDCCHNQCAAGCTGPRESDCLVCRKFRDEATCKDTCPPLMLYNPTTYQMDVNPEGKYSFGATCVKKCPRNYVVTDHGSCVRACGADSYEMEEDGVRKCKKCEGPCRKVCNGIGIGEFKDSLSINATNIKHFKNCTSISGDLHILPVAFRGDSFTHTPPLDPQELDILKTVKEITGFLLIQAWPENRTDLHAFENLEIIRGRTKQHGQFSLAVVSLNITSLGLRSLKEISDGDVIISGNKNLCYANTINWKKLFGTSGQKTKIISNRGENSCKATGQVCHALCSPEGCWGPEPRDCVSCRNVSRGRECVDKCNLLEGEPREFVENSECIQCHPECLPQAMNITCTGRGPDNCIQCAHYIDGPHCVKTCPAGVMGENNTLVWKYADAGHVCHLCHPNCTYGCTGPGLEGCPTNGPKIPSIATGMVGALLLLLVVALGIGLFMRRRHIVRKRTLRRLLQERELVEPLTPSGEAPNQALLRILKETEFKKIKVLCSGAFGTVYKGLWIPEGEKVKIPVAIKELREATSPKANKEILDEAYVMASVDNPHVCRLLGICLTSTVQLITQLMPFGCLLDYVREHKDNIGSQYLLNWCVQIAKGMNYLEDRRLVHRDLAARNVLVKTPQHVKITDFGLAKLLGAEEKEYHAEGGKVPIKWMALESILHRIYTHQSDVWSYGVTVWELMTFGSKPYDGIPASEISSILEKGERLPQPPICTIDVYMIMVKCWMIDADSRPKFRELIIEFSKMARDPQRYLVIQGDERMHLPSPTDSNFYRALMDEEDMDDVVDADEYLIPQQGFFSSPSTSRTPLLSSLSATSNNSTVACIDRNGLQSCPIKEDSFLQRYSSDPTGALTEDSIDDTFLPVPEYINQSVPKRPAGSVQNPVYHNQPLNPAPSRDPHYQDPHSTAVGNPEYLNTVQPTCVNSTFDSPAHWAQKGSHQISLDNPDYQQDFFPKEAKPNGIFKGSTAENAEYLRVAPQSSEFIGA
Sequence of broad panel of kinases (Homo sapiens, UniProt P16234) (P16234 24-1089 limits assumed): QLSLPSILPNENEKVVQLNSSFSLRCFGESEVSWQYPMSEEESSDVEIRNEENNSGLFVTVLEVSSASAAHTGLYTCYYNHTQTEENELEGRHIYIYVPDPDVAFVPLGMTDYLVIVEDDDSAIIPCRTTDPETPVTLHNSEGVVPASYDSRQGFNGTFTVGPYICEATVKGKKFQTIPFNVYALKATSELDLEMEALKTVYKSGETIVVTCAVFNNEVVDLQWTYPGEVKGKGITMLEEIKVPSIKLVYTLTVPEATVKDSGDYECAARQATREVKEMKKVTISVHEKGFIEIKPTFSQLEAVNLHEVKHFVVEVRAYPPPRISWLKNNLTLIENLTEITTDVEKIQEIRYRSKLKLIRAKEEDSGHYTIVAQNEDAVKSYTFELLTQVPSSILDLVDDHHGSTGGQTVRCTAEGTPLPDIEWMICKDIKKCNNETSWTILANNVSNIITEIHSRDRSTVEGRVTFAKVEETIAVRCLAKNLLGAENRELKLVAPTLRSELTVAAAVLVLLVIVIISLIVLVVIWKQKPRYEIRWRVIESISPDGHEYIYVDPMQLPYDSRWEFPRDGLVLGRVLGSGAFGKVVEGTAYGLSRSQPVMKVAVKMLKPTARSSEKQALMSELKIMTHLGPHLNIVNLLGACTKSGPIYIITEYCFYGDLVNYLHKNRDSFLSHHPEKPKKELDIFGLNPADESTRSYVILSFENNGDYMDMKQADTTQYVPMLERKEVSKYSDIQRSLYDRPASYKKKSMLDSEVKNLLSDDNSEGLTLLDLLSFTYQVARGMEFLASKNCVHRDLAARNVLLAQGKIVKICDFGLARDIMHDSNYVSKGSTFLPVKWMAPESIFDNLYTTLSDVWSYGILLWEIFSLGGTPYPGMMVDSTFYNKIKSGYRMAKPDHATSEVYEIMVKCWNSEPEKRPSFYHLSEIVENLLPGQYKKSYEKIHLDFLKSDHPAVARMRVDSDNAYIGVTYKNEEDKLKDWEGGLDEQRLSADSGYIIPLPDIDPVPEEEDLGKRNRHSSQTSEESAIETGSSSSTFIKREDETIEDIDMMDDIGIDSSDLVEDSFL
Sequence of broad panel of kinases (Homo sapiens, UniProt P11362) (P11362 22-822 limits assumed): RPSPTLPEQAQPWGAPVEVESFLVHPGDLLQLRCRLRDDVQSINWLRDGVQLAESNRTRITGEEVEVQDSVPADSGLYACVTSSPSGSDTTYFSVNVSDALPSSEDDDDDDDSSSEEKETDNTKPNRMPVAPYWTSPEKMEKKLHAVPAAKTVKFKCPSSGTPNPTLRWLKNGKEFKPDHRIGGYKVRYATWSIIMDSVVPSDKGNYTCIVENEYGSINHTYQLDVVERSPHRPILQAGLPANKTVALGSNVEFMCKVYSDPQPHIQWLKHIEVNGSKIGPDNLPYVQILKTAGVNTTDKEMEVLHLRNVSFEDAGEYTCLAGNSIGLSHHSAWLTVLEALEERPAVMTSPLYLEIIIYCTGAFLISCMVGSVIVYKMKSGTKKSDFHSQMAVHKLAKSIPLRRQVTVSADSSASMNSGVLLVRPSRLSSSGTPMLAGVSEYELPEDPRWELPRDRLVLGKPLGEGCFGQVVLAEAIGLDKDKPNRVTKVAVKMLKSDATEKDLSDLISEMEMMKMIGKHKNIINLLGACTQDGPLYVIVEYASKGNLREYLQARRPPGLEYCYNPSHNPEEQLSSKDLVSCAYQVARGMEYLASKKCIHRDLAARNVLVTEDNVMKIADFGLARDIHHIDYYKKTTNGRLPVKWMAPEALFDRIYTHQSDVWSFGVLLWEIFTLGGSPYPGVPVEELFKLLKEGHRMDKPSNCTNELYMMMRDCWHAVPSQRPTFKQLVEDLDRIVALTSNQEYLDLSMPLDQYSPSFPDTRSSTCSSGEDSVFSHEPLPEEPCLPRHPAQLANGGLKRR
Sequence of broad panel of kinases (Homo sapiens, UniProt P27361) (P27361 2-379 limits assumed): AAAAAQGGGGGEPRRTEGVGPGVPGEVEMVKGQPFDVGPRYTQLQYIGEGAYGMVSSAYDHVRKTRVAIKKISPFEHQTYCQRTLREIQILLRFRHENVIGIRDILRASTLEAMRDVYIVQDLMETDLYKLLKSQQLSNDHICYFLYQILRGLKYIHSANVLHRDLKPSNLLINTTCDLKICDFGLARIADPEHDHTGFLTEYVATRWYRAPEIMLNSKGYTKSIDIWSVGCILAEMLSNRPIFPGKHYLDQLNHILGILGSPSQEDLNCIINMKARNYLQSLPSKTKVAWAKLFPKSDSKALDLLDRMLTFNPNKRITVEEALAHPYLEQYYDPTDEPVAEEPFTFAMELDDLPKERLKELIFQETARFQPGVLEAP
Sequence of broad panel of kinases (Homo sapiens, UniProt Q9NYL2) (Q9NYL2 2-800 limits assumed): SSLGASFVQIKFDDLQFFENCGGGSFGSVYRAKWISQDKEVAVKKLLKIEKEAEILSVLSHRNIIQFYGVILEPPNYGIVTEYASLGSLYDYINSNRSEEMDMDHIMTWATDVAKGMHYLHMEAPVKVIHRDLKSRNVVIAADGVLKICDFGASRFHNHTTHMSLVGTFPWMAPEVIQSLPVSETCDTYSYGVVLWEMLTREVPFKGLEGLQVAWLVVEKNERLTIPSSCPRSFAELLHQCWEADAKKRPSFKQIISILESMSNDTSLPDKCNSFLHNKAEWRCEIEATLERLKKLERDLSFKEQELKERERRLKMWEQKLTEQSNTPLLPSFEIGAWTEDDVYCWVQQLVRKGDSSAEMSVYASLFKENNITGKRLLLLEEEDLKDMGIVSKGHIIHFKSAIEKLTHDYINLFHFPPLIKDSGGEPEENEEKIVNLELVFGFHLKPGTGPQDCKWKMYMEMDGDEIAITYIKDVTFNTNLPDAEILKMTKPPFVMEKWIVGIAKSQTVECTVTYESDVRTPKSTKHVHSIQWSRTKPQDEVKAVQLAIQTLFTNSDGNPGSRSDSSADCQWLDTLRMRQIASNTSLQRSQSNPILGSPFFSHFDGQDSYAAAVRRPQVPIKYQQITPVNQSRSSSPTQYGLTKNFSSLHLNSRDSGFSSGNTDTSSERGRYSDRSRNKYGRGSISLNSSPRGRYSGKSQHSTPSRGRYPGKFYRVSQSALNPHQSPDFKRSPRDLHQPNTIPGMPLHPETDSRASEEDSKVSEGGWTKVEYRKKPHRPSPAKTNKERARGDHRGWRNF

| Compound | percent of control binding remaining (lower = stronger binding) (broad panel of kinases [1]) | percent of control binding remaining (lower = stronger binding) (broad panel of kinases [2]) | percent of control binding remaining (lower = stronger binding) (broad panel of kinases [3]) | percent of control binding remaining (lower = stronger binding) (broad panel of kinases [4]) | percent of control binding remaining (lower = stronger binding) (broad panel of kinases [5]) | percent of control binding remaining (lower = stronger binding) (broad panel of kinases [6]) | percent of control binding remaining (lower = stronger binding) (broad panel of kinases [7]) | percent of control binding remaining (lower = stronger binding) (broad panel of kinases [8]) | percent of control binding remaining (lower = stronger binding) (broad panel of kinases [9]) | percent of control binding remaining (lower = stronger binding) (broad panel of kinases [10]) | percent of control binding remaining (lower = stronger binding) (broad panel of kinases [11]) | percent of control binding remaining (lower = stronger binding) (broad panel of kinases [12]) | percent of control binding remaining (lower = stronger binding) (broad panel of kinases [13]) | percent of control binding remaining (lower = stronger binding) (broad panel of kinases [14]) | percent of control binding remaining (lower = stronger binding) (broad panel of kinases [15]) | percent of control binding remaining (lower = stronger binding) (broad panel of kinases [16]) | percent of control binding remaining (lower = stronger binding) (broad panel of kinases [17]) | % change compared to control (broad panel of kinases [18]) | percent of control binding remaining (lower = stronger binding) (broad panel of kinases [19]) | percent of control binding remaining (lower = stronger binding) (broad panel of kinases [20]) | further results |
| --- | --- | --- | --- | --- | --- | --- | --- | --- | --- | --- | --- | --- | --- | --- | --- | --- | --- | --- | --- | --- | --- |
| C=CC(=O)N1CC[C@H](Nc2nccc(Nc3ncc(C(=O)Nc4c(C)cccc4C)s3)n2)C1 [Example I-3] | 14% | 0% | 81% | 100% | 80% | 83% | 81% | 100% | 95% | 26% | 11% | 63% | 95% | 94% | 93% | 93% | 100% | 100% | 100% | 97% | percent of control binding remaining (lower = stronger binding) (broad panel of kinases [21]): 74%; percent of control binding remaining (lower = stronger binding) (broad panel of kinases [22]): 81%; percent of control binding remaining (lower = stronger binding) (broad panel of kinases [23]): 85%; percent of control binding remaining (lower = stronger binding) (broad panel of kinases [24]): 96%; percent of control binding remaining (lower = stronger binding) (broad panel of kinases [25]): 100%; percent of control binding remaining (lower = stronger binding) (broad panel of kinases [26]): 0%; percent of control binding remaining (lower = stronger binding) (broad panel of kinases [27]): 6.5%; % change compared to control (broad panel of kinases [28]): 76%; percent of control binding remaining (lower = stronger binding) (broad panel of kinases [29]): 74%; percent of control binding remaining (lower = stronger binding) (broad panel of kinases [30]): 0.8%; percent of control binding remaining (lower = stronger binding) (broad panel of kinases [31]): 93%; percent of control binding remaining (lower = stronger binding) (broad panel of kinases [32]): 100%; percent of control binding remaining (lower = stronger binding) (broad panel of kinases [33]): 25%; percent of control binding remaining (lower = stronger binding) (broad panel of kinases [34]): 0.6%; percent of control binding remaining (lower = stronger binding) (broad panel of kinases [35]): 99%; percent of control binding remaining (lower = stronger binding) (broad panel of kinases [36]): 100%; % change compared to control (broad panel of kinases [37]): 100% |
| C=CC(=O)N1CC[C@H](Nc2nc(CN3CCOCC3)cc(Nc3ncc(C(=O)Nc4c(C)cccc4C)s3)n2)C1 [Example I-2] | 23% | 0% | 86% | 83% | 91% | 100% | 84% | 96% | 100% | 26% | 11% | 91% | 97% | 87% | 91% | 97% | 92% | 100% | 100% | 99% | percent of control binding remaining (lower = stronger binding) (broad panel of kinases [21]): 63%; percent of control binding remaining (lower = stronger binding) (broad panel of kinases [22]): 94%; percent of control binding remaining (lower = stronger binding) (broad panel of kinases [23]): 94%; percent of control binding remaining (lower = stronger binding) (broad panel of kinases [24]): 97%; percent of control binding remaining (lower = stronger binding) (broad panel of kinases [25]): 100%; percent of control binding remaining (lower = stronger binding) (broad panel of kinases [26]): 0%; percent of control binding remaining (lower = stronger binding) (broad panel of kinases [27]): 4.5%; percent of control binding remaining (lower = stronger binding) (broad panel of kinases [28]): 96%; percent of control binding remaining (lower = stronger binding) (broad panel of kinases [29]): 88%; percent of control binding remaining (lower = stronger binding) (broad panel of kinases [30]): 7.5%; percent of control binding remaining (lower = stronger binding) (broad panel of kinases [31]): 98%; percent of control binding remaining (lower = stronger binding) (broad panel of kinases [32]): 100%; percent of control binding remaining (lower = stronger binding) (broad panel of kinases [33]): 3.5%; percent of control binding remaining (lower = stronger binding) (broad panel of kinases [34]): 0.2%; percent of control binding remaining (lower = stronger binding) (broad panel of kinases [35]): 100%; percent of control binding remaining (lower = stronger binding) (broad panel of kinases [36]): 90%; % change compared to control (broad panel of kinases [37]): 100% |
